Read-outs that look alike come from different tables or passages of the source.
Target: mAChR M1 (Homo sapiens, UniProt P11229)
Experiment: In vitro cellular calcium flux assay, positive allosteric modulation of mAChR M1
Assay type: cell-based
Procedure: Baby hamster kidney cells stably expressing human or rat mAChR M1 to M5 were utilised for primary and selectivity profiling activities. mAChR M2 and M4 cell lines also stably expressed the chimeric Gαqi5 G-protein.
Human mAChR M1, M3, M5 and rat M1 cells were grown in low glucose Dulbecco's Modified Eagle's Medium (DMEM) medium plus heat inactivated 10% fetal bovine serum (HI FBS) and 500 μg/ml hygromycin B^1. Human mAChR M2 and M4 cells were maintained as above with^2 the addition of 500 μg/ml G418 to the media. Cells were maintained in culture at 37° C./5% CO2 and passaged twice weekly by treatment with 0.05% Trypsin/EDTA detachment solution, centrifugation (200 g, 5 min) and re-suspension in fresh media. Following cell expansion, cells were cryopreserved at −80° C. by treatment with 0.05% Trypsin/EDTA detachment solution, centrifugation (200 g, 5 min) and re-suspension of the pellet in freezing media (90% HI FBS/10% DMSO^3) at 15E6 cells/ml^4.
Prior to assaying, cells were prepared by thawing at 37° C. in a water bath, centrifugation (200 g, 5 min) and re-suspension of the pellet in fresh media. 15000 cells per well were seeded in black, clear bottomed 384-well Greiner Bio-One plates in plating medium (DMEM/10% HI FBS) and incubated overnight at 37 C/5% CO2.
On the day of the assay, media was removed from each well and replaced with 50 μl^5 assay buffer (HBSS with 20 mM HEPES and 2.5 mM Probenecid) containing the calcium indicator, Calcium 4 (Molecular Devices). Cells were then incubated at 37° C./5% CO2 for 30 min and at room temperature.
Compound preparation was carried out by generation of 11-point, 1 in 3 serial dilution concentration response curves in 100% DMSO. Compound was then diluted 1 in 65^6 with assay buffer (HBSS with 20 mM HEPES and 2.5 mM Probenecid) prior to the addition of 10 ul^7 to the cells using a Tetra fluorometric imaging plate reader (Molecular Devices)^8. Compound driven increases in intracellular calcium flux was measured as an increase in fluorescence (494Ex, 516Em)^9.
Positive allosteric modulator pEC50 values and antagonist pIC50 values for each compound were then determined. […] The points of modification and the alternate reagents, concentrations or equipment employed in these examples were: ^1200 μg/ml hygromycin B; ^2G418 not added; ^3CELLBANKER 1; ^410E6; ^5 40 μl; ^6 1 in 99; ^7 20 μl; ^8FDSS6000 (Hamamatsu Photonics); ^9(480Ex, 540Em); ^10Spotfire (TIBCO).

[1] = BHK cells expressing mAChR M1, EC20 carbachol, Examples 76-80 and 82-89 slightly modified procedure

Sequence of mAChR M1 (P11229 whole entry, looked up): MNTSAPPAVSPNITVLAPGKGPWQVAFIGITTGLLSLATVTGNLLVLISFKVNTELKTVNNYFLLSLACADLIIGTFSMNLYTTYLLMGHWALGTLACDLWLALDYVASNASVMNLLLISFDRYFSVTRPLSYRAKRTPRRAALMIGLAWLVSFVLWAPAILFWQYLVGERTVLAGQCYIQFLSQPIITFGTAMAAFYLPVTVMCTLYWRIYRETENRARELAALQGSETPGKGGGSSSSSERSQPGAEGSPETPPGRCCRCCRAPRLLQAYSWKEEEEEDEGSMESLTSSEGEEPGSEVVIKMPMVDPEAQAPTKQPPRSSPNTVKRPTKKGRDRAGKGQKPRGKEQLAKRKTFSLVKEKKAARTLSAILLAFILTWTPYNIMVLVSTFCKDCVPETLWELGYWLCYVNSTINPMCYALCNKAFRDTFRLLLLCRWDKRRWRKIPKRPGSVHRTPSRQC

Compound | pEC50 for positive allosteric modulation [1] | also measured
O=C(N[C@@H]1CCOC[C@H]1O)c1cn(Cc2cccc(F)c2)c2c(Cl)ccnc12 (single isomer, unassigned) [Example 86, 7-Chloro-1-(3-fluorobenzyl)-N-(trans-3-hydroxytetrahydro-2H-pyran-4-yl)-1H-pyrrolo[3,2-b]pyridine-3-carboxamide] |  | EC50: 25.1 nM
Cc1ccc(Cn2cc(C(=O)N[C@H]3CCCC[C@@H]3O)c3ncccc32)cc1 [Example 1, N-((1S,2S)-2-hydroxycyclohexyl)-1-(4-methylbenzyl)-1H-pyrrolo[3,2-b]pyridine-3-carboxamide] | 7.0 | 
O=C(N[C@H]1CCCC[C@@H]1O)c1cn(Cc2cc(F)cc(F)c2)c2cccnc12 [Example 2, 1-(3,5-Difluorobenzyl)-N-((1S,2S)-2-hydroxycyclohexyl)-1H-pyrrolo[3,2-b]pyridine-3-carboxamide] | 6.7 | 
O=C(N[C@H]1CCCC[C@@H]1O)c1cn(Cc2cc(F)ccc2F)c2cccnc12 [Example 3, 1-(2,5-Difluorobenzyl)-N-((1S,2S)-2-hydroxycyclohexyl)-1H-pyrrolo[3,2-b]pyridine-3-carboxamide] | 6.8 | 
O=C(N[C@H]1CCCC[C@@H]1O)c1cn(Cc2cccc(F)c2)c2cccnc12 [Example 4, 1-(3-Fluorobenzyl)-N-((1S,2S)-2-hydroxycyclohexyl)-1H-pyrrolo[3,2-b]pyridine-3-carboxamide] | 6.8 | 
Cc1nc(Cn2cc(C(=O)N[C@H]3CCCC[C@@H]3O)c3ncccc32)cs1 [Example 7, N-((1S,2S)-2-Hydroxycyclohexyl)-1-((2-methylthiazol-4-yl)methyl)-1H-pyrrolo[3,2-b]pyridine-3-carboxamide] | 5.9 | 
O=C(N[C@H]1CCCC[C@@H]1O)c1cn(Cc2ccc(OC(F)(F)F)cc2)c2cccnc12 [Example 9, N-((1S,2S)-2-Hydroxycyclohexyl)-1-(4-(trifluoromethoxy)benzyl)-1H-pyrrolo[3,2-b]pyridine-3-carboxamide] | 6.6 | 
O=C(N[C@H]1CCCC[C@@H]1O)c1cn(Cc2ccc(F)cc2)c2c(Cl)ccnc12 [Example 14, 7-Chloro-1-(4-fluorobenzyl)-N-((1S,2S)-2-hydroxycyclohexyl)-1H-pyrrolo[3,2-b]pyridine-3-carboxamide] | 7.3 | 
O=C(N[C@H]1CCCC[C@@H]1O)c1cn(Cc2cccc(F)c2F)c2c(Cl)ccnc12 [Example 15, 7-Chloro-1-(2,3-difluorobenzyl)-N-((1S,2S)-2-hydroxycyclohexyl)-1H-pyrrolo[3,2-b]pyridine-3-carboxamide] | 7.0 | 
Cc1cccc(Cn2cc(C(=O)N[C@H]3CCCC[C@@H]3O)c3nccc(Cl)c32)n1 [Example 16, 7-Chloro-N-((1S,2S)-2-hydroxycyclohexyl)-1-((6-methylpyridin-2-yl)methyl)-1H-pyrrolo[3,2-b]pyridine-3-carboxamide] | 6.5 | 
O=C(N[C@H]1CCCC[C@@H]1O)c1cn(Cc2ccc(F)cn2)c2c(Cl)ccnc12 [Example 17, 7-Chloro-1-((5-fluoropyridin-2-yl)methyl)-N-((1S,2S)-2-hydroxycyclohexyl)-1H-pyrrolo[3,2-b]pyridine-3-carboxamide] | 6.9 | 
O=C(NC1(CO)CCCC1)c1cn(Cc2ccc(F)cc2)c2cccnc12 [Example 21, 1-(4-Fluorobenzyl)-N-(1-(hydroxymethyl)cyclopentyl)-1H-pyrrolo[3,2-b]pyridine-3-carboxamide] | 5.7 | 
O=C(N[C@H]1CCCC[C@@H]1O)c1cn(Cc2ccccc2F)c2cccnc12 [Example 22, 1-(2-Fluorobenzyl)-N-((1S,2S)-2-hydroxycyclohexyl)-1H-pyrrolo[3,2-b]pyridine-3-carboxamide] | 6.5 | 
O=C(N[C@H]1CCCC[C@@H]1O)c1cn(Cc2ccc(Cl)cc2)c2cccnc12 [Example 23, 1-(4-Chlorobenzyl)-N-((1S,2S)-2-hydroxycyclohexyl)-1H-pyrrolo[3,2-b]pyridine-3-carboxamide] | 6.6 | 
O=C(N[C@H]1CCCC[C@@H]1O)c1cn(Cc2ccc(F)cc2F)c2cccnc12 [Example 24, 1-(2,4-Difluorobenzyl)-N-((1S,2S)-2-hydroxycyclohexyl)-1H-pyrrolo[3,2-b]pyridine-3-carboxamide] | 6.5 | 
Cc1ccc(Cn2cc(C(=O)N[C@H]3CCCC[C@@H]3O)c3ncccc32)cn1 [Example 25, N-((1S,2S)-2-Hydroxycyclohexyl)-1-((6-methylpyridin-3-yl)methyl)-1H-pyrrolo[3,2-b]pyridine-3-carboxamide] | 6.2 | 
Cc1ccc(Cn2cc(C(=O)N[C@H]3CCCC[C@@H]3O)c3ncccc32)nc1 [Example 26, N-((1S,2S)-2-Hydroxycyclohexyl)-1-((5-methylpyridin-2-yl)methyl)-1H-pyrrolo[3,2-b]pyridine-3-carboxamide] | 6.1 | 
O=C(NC1CCOCC1)c1cn(Cc2ccc(F)cc2)c2cccnc12 [Example 29, 1-(4-Fluorobenzyl)-N-(tetrahydro-2H-pyran-4-yl)-1H-pyrrolo[3,2-b]pyridine-3-carboxamide] | 5.8 | 
O=C(NC1CCNCC1)c1cn(Cc2ccc(F)cc2)c2cccnc12 [Example 30, 1-(4-Fluorobenzyl)-N-(piperidin-4-yl)-1H-pyrrolo[3,2-b]pyridine-3-carboxamide] | 6.5 | 
CN1CCC(NC(=O)c2cn(Cc3ccc(F)cc3)c3cccnc23)CC1 [Example 31, 1-(4-Fluorobenzyl)-N-(1-methylpiperidin-4-yl)-1H-pyrrolo[3,2-b]pyridine-3-carboxamide] | 6.5 | 
N#Cc1ccnc2c(C(=O)N[C@H]3CCCC[C@@H]3O)cn(Cc3ccc(F)cc3)c12 [Example 32, 7-Cyano-1-(4-fluorobenzyl)-N-((1S,2S)-2-hydroxycyclohexyl)-1H-pyrrolo[3,2-b]pyridine-3-carboxamide] | 6.7 | 
COc1ccnc2c(C(=O)N[C@H]3CCCC[C@@H]3O)cn(Cc3ccc(F)cc3)c12 [Example 37, 1-(4-Fluorobenzyl)-N-((1S,2S)-2-hydroxycyclohexyl)-7-methoxy-1H-pyrrolo[3,2-b]pyridine-3-carboxamide] | 6.7 | 
COc1ccc2c(n1)c(C(=O)N[C@H]1CCCC[C@@H]1O)cn2Cc1ccc(F)cc1 [Example 38, 1-(4-Fluorobenzyl)-N-((1S,2S)-2-hydroxycyclohexyl)-5-methoxy-1H-pyrrolo[3,2-b]pyridine-3-carboxamide] | 5.8 | 
O=C(N[C@H]1CCCC[C@@H]1O)c1cn(Cc2ccc(F)cc2)c2ccc(Cl)nc12 [Example 39, 5-Chloro-1-(4-fluorobenzyl)-N-((1S,2S)-2-hydroxycyclohexyl)-1H-pyrrolo[3,2-b]pyridine-3-carboxamide] | 6.0 | 
Cc1ccc2c(n1)c(C(=O)N[C@H]1CCCC[C@@H]1O)cn2Cc1ccc(-n2cccn2)cc1 [Example 40, 1-(4-(1H-Pyrazol-1-yl)benzyl)-N-((1S,2S)-2-hydroxycyclohexyl)-5-methyl-1H-pyrrolo[3,2-b]pyridine-3-carboxamide] | 6.5 | 
N#Cc1ccc2c(n1)c(C(=O)N[C@H]1CCCC[C@@H]1O)cn2Cc1ccc(-n2cccn2)cc1 [Example 41, 1-(4-(1H-Pyrazol-1-yl)benzyl)-5-cyano-N-((1S,2S)-2-hydroxycyclohexyl)-1H-pyrrolo[3,2-b]pyridine-3-carboxamide] |  | EC50 (BHK cells expressing mAChR M1, EC20 carbachol, Examples 76-80 and 82-89 slightly modified procedure, read-out: pEC50 for positive allosteric modulation (converted)): 316 nM
Cn1ccnc1-c1ccc(Cn2cc(C(=O)N[C@H]3CCCC[C@@H]3O)c3ncccc32)cc1 [Example 42, N-((1S,2S)-2-Hydroxycyclohexyl)-1-(4-(1-methyl-1H-imidazol-2-yl)benzyl)-1H-pyrrolo[3,2-b]pyridine-3-carboxamide] | 7.0 | 
Cc1cccc(-c2ccc(Cn3cc(C(=O)N[C@H]4CCCC[C@@H]4O)c4ncccc43)c(F)c2)n1 [Example 44, 1-(2-Fluoro-4-(6-methylpyridin-2-yl)benzyl)-N-((1S,2S)-2-hydroxycyclohexyl)-1H-pyrrolo[3,2-b]pyridine-3-carboxamide] | 6.9 | 

From patent US10072005B2, “4-azaindole derivatives” (EISAI R&D MANAGEMENT CO., LTD., priority 2013, dated 2018)
